Literature values, collected in patent US20040110781A1 (priority 2002, published 2004).

Test system: excitory opioid receptors on sensory neurons

C[C@@H](NC(=O)[C@@H](N)Cc1ccc(O)cc1)C(=O)NCC(=O)N[C@@H](Cc1ccccc1)C(=O)NNC(=O)[C@H](Cc1ccccc1)NC(=O)CNC(=O)[C@@H](C)NC(=O)[C@@H](N)Cc1ccc(O)cc1 [biphalin]
action on excitory opioid receptor functions: selective antagonists of excitory opioid receptors functions
